These results are taken from paper PMC4639779, “Peptide Functionalized Gold Nanorods for the Sensitive Detection of a Cardiac Biomarker Using Plasmonic Paper Devices” (Scientific Reports, 2015).

Values joined by “and” are separate entries in the source; they are usually repeats but may differ in a detail not shown here. Equal entries are not always repeated.

One data set concerns cTnI (troponin I). Nature of the data set: LSPR detection of cTnI with bioplasmonic paper device in buffer. The format is binding, human. Particulars: highest concentration tested, 3.53 μg/ml cTnI. As for the experimental part: To probe the sensing capability of the BPDs, we exposed the BPDs to troponin I (3.53 μg/ml in 0.1 M TBS pH 8.0). […] The higher sensitivity of peptide-AuNR compared to antibody-AuNR is due to differences in the thickness of the peptide and antibody adsorbate layer as will be discussed in detail below. To probe the limit of detection in both cases, BPDs with bioconjugated AuNR were exposed to varying concentrations of cTnI. […] To compare the selectivity of the peptide and antibody towards cTnI, we used human serum albumin (HSA) as an interfering protein (Supplemental Figure S11). […] A regular laboratory filter paper (Whatman #1) was used for the absorption of nanorods. A 1 cm × 1 cm paper strip is taken and immersed in a solution of AuNR conjugates (peptide and antibody) and left overnight at 4 °C. The paper strip was taken out and washed with tris buffer and immersed in different concentrations of troponin in tris buffer (pH 8) for 2 hours at 4 °C. It was removed and washed thoroughly with tris buffer and dried under a stream of nitrogen. Extinction spectra from paper substrates were collected using a CRAIC microspectrophotometer (QDI 302) coupled to a Leica optical microscope (DM 4000 M) with 20× objective in the range of 450–800 nm with 10 accumulations and 100 ms exposure time in reflection mode. The spectral resolution of the microspectrophotometer is 0.2 nm. […]

Data set [1] can be described thus: Distance-dependent refractive index sensitivity of AuNR (layer-by-layer). The format is physicochemical. The text has this: We probed the distance-dependent sensitivity of the AuNRs, nanotransducers used in this study, by depositing polyelectrolyte multilayers using layer-by-layer (LbL) assembly. Extinction spectra were collected after the deposition of each bilayer comprised of poly(allylamine hydrocholoride) (PAH) as a positively charged polymer and poly(styrene sulfonate) (PSS) as a negatively charged polymer. […] It is instructive to define a parameter called distance-dependent refractive index sensitivity (σ), which is the LSPR shift caused by the deposition of a 1 nm thick dielectric layer (polyelectrolyte multilayers in the present case) at a predetermined distance from the surface of the nanotransducer. The extinction measurements after troponin binding to the bioconjugated AuNR were performed in the dry state. So, considering that the thickness of peptide and antibody in their dry state is ~1 nm and ~4.2 nm for peptide and antibody, respectively, the values of σ are computed as shown in Fig. 5E. For peptide recognition elements, σ is found to be 6.67 nm/nm whereas in case of antibody, σ is found to be 4.33 nm/nm. From the distance-dependent refractive index sensitivity measurements, it can be seen that the local refractive index sensitivity with peptide recognition elements is nearly 50% higher than compared to that with antibody-based recognition elements. […] This discrepancy can possibly be due to the higher number of cTnI molecules bound on the AuNR surface in the case of the peptide recognition elements compared to antibodies. The low steric hindrance of the peptides facilitates a higher density of the recognition elements on the surface of the Au nanotransducers and thus a higher density of cTnI molecules. This observation will be further explored in future studies in order to maximize the sensitivity of our BPDs.
Glass substrates were modified by 1% P2VP followed by the adsorption of AuNR. […]

Data set [2] can be described thus: AFM dry state thickness of recognition layer on AuNR. It is filed as physicochemical. How it is done: We have also used dynamic light scattering (DLS) to monitor the changes in the hydrodynamic size of the AuNR upon bioconjugation with cTnI binding peptide or anti-cTnI. […] The dry state thickness of the peptide and antibody recognition layers was measured using atomic force microscopy (AFM; Supplemental Figure S6).
Now we turn our attention to the structure-based functional mechanism of the peptide-conjugated BPDs. The structure and thickness layer of the peptide recognition element on the gold surface was also investigated using molecular dynamic simulations (described in the supplemental section). […] The amino acid Trp[10] in the peptide (a possible binding residue to cTnI) is distal to the gold surface and accessible for cTnI binding. […] These key residues provide structural information and will be used in further studies for the optimization of peptide recognition elements for cTnI. Of importance to this study, the thickness of the biomolecule adlayer can be obtained from our molecular dynamic simulations. […] The smaller thickness of the peptide layer renders higher sensitivity of BPDs using peptide recognition elements. For calculating the thickness layer from our computational models, the gold surface is aligned in the XY plane and the thickness of the peptide or peptide-cTnI complex on the gold surface is calculated as the maximum difference of the Z-coordinates. […]

The target in the next data set is T1, cTnI (Homo sapiens, UniProt P19429).
T1 construct: purchased Life Diagnostics, USA
As to conditions: identified from a phage display peptide library; cited from earlier work. An excerpt:
Gold nanorods (AuNR) are an attractive choice as plasmonic nanotransducers for label-free sensing because of their geometrical tunability of LSPR wavelength and high sensitivity. We synthesized AuNRs using a seed-mediated approach with a length of 47.3 ± 2.3 nm and a diameter of 20.2 ± 1.4 nm (Fig. 2A). The human troponin I binding peptide (-FYSHSFHENWPS-), identified from a phage display peptide library, with nanomolar (nM) binding affinity to cTnI was employed here as the biorecognition element. The conjugation of the peptide to AuNRs as achieved by introducing a cysteine residue at ...

For data set [3], the target named is T2, Human Cardiac Troponin-I Recombinant (human, UniProt P19429 1-210).
T2 construct: human cardiac troponin I, recombinant, bought; also called cTnI; source: bought: Life Diagnostics, USA (recombinant)
Nature of the data set: pull-down; peptide-conjugated AuNRs with cTnI; SDS-PAGE, blotted with polyclonal goat antibody. Particulars: both partners purified.

T1 sequence (P19429 whole entry): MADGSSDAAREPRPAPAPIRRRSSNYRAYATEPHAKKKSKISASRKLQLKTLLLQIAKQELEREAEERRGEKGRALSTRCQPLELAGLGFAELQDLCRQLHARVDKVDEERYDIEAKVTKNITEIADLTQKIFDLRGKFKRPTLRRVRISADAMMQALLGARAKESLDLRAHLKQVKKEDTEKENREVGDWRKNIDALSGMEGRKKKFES
T2 sequence (P19429 whole entry): as above

In the case of “-FYSHSFHENWPSC- [cysteine-modified peptide]”, the “LSPR shift higher than with antibodies as recognition elements” value in the data set on cTnI (troponin I) is around 100%. In addition, the “distance-dependent refractive index sensitivity (σ)” value in data set [1] (AuNRs on glass, PAH/PSS multilayers, at dry thickness of ~1 nm (peptide) or ~4.2 nm (antibody)) is listed as 6.67 nm/nm. Also, the “corresponding LSPR shift from the distance-dependence curve” value in data set [1] (from σ curve of Fig. 5E) is 24.5 nm. The “local refractive index sensitivity higher than with antibody-based recognition elements” value in data set [1] (peptide vs antibody) is listed as around 50%. Further, the “thickness of recognition layer on AuNR” value in data set [2] is 0.96 nm and ~ 0.9 nm.
For the molecule -FYSHSFHENWPS-, at cTnI, the “binding affinity to cTnI” value is given as “nanomolar”.

B1: cysteine-modified human troponin I binding peptide (-FYSHSFHENWPSC-) (peptide)
peptide: FYSHSFHENWPSC
notes: In all assays the peptide was attached to gold (Au surface of the QCM, or gold nanorods) by an Au-S linkage through its C-terminal cysteine; source: synthetic peptide, bought: Genscript USA Inc
Take B1: in data set [3], the binding result is on record as “binds”.
